Measurements: ChEMBL document CHEMBL5291721, “A preclinical secondary pharmacology resource illuminates target-adverse drug reaction associations of marketed drugs” (Nat Commun, 2023)

Tests used:
Adenosine receptor A2a = Adenosine receptor A2a (Homo sapiens, UniProt P29274)
Adenosine receptor A3 = target: T1, Adenosine receptor A3 (Homo sapiens, UniProt P0DMS8)
T1 sequence (P0DMS8 whole entry): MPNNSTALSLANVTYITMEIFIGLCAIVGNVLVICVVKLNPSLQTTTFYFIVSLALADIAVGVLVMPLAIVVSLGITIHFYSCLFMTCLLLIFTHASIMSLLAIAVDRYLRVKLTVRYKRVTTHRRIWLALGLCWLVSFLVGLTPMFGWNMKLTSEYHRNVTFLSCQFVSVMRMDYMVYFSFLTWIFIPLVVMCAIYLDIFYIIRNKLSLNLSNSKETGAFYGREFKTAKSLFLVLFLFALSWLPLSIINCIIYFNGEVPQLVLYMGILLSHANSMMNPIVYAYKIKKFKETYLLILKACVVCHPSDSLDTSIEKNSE

[1] = target: T2, Type-1 angiotensin II receptor (Homo sapiens, UniProt P30556)
T2 sequence (P30556 whole entry): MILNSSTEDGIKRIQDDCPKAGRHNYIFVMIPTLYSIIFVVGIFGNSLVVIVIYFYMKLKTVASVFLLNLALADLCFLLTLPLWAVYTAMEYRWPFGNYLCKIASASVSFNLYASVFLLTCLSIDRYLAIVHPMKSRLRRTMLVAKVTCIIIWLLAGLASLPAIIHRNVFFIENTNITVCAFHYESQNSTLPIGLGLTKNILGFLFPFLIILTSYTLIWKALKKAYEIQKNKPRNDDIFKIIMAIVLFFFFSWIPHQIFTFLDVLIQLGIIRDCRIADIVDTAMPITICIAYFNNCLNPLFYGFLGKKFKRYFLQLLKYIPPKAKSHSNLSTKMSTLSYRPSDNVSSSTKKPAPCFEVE

[2] = target: Voltage-dependent L-type calcium channel subunit alpha-1C (Rattus norvegicus, UniProt P22002); type: functional
[3] = target: T3, Muscarinic acetylcholine receptor M2 (Homo sapiens, UniProt P08172); type: functional, cell-based
T3 sequence (P08172 whole entry): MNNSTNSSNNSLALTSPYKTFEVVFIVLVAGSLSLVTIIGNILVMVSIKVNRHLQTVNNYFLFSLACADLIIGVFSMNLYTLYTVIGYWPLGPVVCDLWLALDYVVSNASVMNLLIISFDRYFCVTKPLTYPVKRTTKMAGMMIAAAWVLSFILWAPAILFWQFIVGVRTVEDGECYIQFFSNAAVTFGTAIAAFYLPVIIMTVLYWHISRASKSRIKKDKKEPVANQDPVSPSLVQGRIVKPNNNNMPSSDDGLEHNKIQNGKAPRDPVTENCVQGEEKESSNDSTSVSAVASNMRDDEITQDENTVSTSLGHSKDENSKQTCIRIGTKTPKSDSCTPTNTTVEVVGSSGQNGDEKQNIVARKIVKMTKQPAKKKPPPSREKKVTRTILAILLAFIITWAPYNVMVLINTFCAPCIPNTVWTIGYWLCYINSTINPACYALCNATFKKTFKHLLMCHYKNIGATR

[4] = target: Glutamate receptor ionotropic, NMDA 1 (Rattus norvegicus, UniProt P35439)
Motilin receptor = Motilin receptor (Homo sapiens, UniProt O43193)
[5] = target: Delta-type opioid receptor (Homo sapiens, UniProt P41143)
[6] = target: T4, Prostaglandin G/H synthase 1 (Rattus norvegicus, UniProt Q63921); type: functional
T4 sequence (Q63921 whole entry): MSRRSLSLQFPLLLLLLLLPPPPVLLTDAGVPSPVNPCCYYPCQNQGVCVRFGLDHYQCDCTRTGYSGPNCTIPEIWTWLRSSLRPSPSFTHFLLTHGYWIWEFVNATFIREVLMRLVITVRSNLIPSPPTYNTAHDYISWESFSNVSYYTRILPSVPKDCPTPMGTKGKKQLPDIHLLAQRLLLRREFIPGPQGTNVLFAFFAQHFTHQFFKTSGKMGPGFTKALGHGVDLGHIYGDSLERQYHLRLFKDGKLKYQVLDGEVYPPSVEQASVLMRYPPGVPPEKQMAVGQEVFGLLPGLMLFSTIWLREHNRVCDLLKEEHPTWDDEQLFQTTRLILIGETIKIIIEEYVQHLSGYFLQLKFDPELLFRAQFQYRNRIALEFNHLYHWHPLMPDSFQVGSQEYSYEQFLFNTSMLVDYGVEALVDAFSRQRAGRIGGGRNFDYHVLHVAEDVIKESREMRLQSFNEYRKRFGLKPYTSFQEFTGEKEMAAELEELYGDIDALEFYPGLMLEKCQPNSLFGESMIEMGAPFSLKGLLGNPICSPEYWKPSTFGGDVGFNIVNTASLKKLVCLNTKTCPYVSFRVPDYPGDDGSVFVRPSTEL

[7] = target: Sodium-dependent noradrenaline transporter (Homo sapiens, UniProt P23975)
[8] = target: cGMP-inhibited 3',5'-cyclic phosphodiesterase 3A (Homo sapiens, UniProt Q14432); type: functional
Histamine H3 receptor = Histamine H3 receptor (Homo sapiens, UniProt Q9Y5N1)
Also: assay procedure not described here.

cGMP-inhibited 3',5'-cyclic phosphodiesterase 3A, sequence (Q14432 whole entry): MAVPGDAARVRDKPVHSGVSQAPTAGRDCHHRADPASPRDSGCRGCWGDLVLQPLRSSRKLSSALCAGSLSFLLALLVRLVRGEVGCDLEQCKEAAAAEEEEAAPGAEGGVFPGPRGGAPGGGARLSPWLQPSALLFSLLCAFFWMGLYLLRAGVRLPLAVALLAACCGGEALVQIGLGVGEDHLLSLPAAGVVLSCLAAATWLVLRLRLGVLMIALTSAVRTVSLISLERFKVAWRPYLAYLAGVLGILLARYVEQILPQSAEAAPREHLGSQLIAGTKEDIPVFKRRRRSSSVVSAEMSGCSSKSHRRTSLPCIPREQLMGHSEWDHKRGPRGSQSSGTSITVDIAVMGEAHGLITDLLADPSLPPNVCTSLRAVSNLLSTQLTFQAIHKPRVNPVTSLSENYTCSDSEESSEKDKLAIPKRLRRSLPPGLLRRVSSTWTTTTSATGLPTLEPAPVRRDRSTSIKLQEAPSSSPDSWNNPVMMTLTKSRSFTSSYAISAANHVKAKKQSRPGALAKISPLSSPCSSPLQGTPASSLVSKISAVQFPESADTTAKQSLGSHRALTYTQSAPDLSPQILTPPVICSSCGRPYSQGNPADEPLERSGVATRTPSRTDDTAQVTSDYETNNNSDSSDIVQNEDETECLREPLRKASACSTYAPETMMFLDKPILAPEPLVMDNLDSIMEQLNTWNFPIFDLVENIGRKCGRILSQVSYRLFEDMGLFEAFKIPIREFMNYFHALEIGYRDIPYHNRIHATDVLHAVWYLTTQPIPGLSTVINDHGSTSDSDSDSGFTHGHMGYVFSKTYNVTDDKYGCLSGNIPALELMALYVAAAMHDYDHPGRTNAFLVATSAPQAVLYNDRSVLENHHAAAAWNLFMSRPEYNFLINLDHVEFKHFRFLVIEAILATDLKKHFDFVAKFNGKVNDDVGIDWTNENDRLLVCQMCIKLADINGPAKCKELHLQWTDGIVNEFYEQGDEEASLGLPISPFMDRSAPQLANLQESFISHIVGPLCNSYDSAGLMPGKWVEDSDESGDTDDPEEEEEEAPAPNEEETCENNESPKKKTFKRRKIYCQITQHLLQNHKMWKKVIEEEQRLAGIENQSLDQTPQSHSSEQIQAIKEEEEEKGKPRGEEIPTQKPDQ
Sodium-dependent noradrenaline transporter, sequence (P23975 whole entry): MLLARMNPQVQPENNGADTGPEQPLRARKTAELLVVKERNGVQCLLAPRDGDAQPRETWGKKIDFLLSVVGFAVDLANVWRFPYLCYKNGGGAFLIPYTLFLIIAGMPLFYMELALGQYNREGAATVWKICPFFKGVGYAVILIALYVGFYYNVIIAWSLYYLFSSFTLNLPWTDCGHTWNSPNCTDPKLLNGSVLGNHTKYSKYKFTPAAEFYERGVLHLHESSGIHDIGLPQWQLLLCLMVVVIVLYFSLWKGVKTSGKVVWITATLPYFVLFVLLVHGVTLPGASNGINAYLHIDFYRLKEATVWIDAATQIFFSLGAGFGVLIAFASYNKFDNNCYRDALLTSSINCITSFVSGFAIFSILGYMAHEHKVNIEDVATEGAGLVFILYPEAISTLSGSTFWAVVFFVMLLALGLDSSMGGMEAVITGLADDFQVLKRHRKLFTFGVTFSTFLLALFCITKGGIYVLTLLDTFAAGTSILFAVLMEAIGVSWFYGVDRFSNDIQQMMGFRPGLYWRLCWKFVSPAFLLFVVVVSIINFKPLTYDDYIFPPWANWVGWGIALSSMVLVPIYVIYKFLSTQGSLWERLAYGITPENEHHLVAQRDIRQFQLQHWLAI
Delta-type opioid receptor, sequence (P41143 whole entry): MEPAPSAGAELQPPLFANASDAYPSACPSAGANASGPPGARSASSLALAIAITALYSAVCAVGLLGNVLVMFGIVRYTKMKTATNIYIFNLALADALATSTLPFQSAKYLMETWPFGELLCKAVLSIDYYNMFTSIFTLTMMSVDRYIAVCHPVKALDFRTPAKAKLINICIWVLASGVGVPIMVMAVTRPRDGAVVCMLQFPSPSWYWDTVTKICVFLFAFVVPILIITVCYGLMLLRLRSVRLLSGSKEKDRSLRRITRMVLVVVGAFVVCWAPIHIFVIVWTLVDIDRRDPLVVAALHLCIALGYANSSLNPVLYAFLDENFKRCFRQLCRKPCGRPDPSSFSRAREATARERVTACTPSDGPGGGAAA
Motilin receptor, sequence (O43193 whole entry): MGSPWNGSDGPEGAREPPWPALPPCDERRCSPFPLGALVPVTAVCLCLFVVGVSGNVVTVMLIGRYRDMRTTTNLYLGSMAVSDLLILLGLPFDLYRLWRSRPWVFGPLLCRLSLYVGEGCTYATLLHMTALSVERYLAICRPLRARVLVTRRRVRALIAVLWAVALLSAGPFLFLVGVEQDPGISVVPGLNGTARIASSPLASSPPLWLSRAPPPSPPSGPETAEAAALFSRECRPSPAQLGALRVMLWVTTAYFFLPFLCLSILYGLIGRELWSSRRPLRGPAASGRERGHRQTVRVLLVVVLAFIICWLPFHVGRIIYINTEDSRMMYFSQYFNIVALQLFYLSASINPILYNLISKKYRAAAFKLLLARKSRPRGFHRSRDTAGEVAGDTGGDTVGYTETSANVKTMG
Voltage-dependent L-type calcium channel subunit alpha-1C, sequence (P22002 whole entry): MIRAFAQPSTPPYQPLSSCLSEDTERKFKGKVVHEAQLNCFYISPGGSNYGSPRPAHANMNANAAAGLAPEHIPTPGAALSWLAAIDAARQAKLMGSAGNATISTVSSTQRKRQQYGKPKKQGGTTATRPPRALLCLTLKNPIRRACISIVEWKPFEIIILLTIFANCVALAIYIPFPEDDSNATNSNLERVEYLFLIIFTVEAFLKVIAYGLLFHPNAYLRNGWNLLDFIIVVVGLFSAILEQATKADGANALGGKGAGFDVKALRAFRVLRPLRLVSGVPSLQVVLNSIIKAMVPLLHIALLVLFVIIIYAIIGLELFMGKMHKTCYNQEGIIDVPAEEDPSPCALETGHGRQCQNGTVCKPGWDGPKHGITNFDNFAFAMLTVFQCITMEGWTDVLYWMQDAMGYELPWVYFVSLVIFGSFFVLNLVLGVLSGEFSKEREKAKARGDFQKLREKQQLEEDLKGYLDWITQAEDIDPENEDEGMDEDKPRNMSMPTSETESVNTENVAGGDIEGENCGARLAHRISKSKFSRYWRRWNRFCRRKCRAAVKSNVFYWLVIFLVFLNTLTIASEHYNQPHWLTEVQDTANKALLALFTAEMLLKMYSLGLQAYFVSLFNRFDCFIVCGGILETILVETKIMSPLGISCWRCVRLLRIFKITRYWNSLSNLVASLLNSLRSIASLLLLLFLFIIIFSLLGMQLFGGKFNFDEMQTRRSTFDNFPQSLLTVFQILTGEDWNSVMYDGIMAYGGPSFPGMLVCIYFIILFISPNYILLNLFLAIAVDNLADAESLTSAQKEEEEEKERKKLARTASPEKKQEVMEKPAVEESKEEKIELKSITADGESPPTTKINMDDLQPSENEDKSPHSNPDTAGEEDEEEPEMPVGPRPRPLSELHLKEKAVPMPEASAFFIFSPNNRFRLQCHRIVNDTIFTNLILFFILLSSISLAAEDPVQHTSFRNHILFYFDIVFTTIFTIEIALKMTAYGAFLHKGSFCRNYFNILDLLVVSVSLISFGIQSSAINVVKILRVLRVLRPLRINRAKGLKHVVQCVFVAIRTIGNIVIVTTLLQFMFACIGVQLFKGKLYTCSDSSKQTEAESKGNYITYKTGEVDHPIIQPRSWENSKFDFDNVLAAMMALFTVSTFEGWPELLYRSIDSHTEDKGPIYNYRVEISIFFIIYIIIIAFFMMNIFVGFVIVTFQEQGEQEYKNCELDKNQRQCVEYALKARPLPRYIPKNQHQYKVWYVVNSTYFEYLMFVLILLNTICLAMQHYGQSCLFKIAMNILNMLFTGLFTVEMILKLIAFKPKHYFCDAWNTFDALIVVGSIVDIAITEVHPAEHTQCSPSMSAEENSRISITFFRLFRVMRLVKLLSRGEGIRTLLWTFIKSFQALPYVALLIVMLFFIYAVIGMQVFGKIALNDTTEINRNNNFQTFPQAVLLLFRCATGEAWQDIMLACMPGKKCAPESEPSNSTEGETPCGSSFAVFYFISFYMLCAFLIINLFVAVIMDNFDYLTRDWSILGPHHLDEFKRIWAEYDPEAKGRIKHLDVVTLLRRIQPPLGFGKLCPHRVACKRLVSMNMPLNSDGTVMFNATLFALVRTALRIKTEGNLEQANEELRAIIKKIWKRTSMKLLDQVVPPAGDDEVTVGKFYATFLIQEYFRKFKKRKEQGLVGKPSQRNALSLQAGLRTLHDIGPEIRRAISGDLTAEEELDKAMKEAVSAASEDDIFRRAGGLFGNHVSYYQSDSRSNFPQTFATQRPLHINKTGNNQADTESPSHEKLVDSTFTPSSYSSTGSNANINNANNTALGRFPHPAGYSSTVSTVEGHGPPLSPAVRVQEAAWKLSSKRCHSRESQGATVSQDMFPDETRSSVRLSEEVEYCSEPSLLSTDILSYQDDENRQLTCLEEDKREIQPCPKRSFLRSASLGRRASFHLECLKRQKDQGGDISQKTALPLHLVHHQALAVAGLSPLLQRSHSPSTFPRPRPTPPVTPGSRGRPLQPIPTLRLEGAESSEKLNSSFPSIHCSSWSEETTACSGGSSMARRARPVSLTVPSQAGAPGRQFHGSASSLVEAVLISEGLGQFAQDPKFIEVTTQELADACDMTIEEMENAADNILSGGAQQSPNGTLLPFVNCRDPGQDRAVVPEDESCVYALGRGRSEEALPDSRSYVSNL

Row | SMILES | AC50 (Adenosine receptor A2a) [µM] | AC50 (Adenosine receptor A3) [µM] | AC50 [1] [µM] | AC50 [2] [µM] | AC50 [3] [µM] | AC50 [4] [µM] | AC50 (Motilin receptor) [µM] | AC50 [5] [µM] | AC50 [6] [µM] | AC50 [7] [µM] | AC50 [8] [µM] | AC50 (Histamine H3 receptor) [µM]
1 | COC(=O)C1=C(C)NC(C)=C(C(=O)OCCN2CCN(C(c3ccccc3)c3ccccc3)CC2)C1c1cccc([N+](=O)[O-])c1 (configuration not stated) [MANIDIPINE 6300] | > 30 | 3.8 | > 30 | 0.3 | > 30 | > 30 | > 30 | > 30 | 7.4 | > 30 | > 30 | > 30
2 | CC(C)(Oc1ccc(CCNC(=O)c2ccc(Cl)cc2)cc1)C(=O)O [BEZAFIBRATE] | > 10 | > 10 | > 10 | > 10 | > 10 | > 10 | > 10 | > 30 | > 10 | > 10 | > 30 | > 10
3 | CN[C@@H](C)[C@@H](O)c1ccccc1 [PSEUDOEPHEDRINE] | > 30 | > 30 | > 30 | > 10 | > 10 | > 10 | > 10 | > 30 | > 30 | > 10 | > 30 | > 10
4 | CCOC(=O)c1c(CSc2ccccc2)n(C)c2cc(Br)c(O)c(CN(C)C)c12 [UMIFENOVIR] | 23 | > 30 | > 30 | > 30 | > 30 | > 30 | 3.7 | > 30 | 19 | 21 | > 30 | > 30
5 | O=C1c2ccccc2C(=O)C1c1ccccc1 [PHENINDIONE] | > 10 | > 10 | > 10 | > 10 | > 10 | > 10 | > 10 | > 30 | > 10 | > 10 | > 30 | > 10
6 | C[C@]12CCC(=O)C[C@@H]1CC[C@@H]1[C@@H]2CC[C@]2(C)[C@@H](O)CC[C@@H]12 [STANOLONE] | > 30 | > 30 | > 30 | > 30 | > 30 | > 30 | > 30 | > 30 | > 30 | > 30 | > 30 | > 30
7 | O=C1c2cccc3c2[C@H](CCC3)CN1[C@@H]1CN2CCC1CC2 [PALONOSETRON] | > 30 | > 30 | > 30 | > 30 | > 30 | > 30 | > 30 | > 30 | > 30 | > 30 | > 30 | > 30
8 | C[N+](C)(C)CCOP(=O)([O-])OC[C@H](O)CO | > 30 | > 30 | > 30 | > 30 | > 30 | > 30 | > 30 | > 30 | > 30 | > 30 | > 30 | > 30
9 | CCOC(=O)c1ccc(N)cc1 [BENZOCAINE] | > 10 | > 10 | > 10 | > 10 | > 10 | > 10 | > 10 | > 30 | > 10 | > 10 | > 30 | > 10
10 | CN(Cc1cnc2nc(N)nc(N)c2n1)c1ccc(C(=O)N[C@@H](CCC(=O)O)C(=O)O)cc1 [METHOTREXATE] | > 30 | > 30 | > 30 | > 10 | > 10 | > 10 | > 10 | > 30 | > 30 | > 30 | > 30 | > 10
11 | Cc1cccc(C)c1NC(=O)CC12CCCN1CCC2 [PILSICAINIDE] | > 30 | > 30 | > 30 | > 30 | > 30 | > 30 | > 30 | > 30 | > 30 | > 30 | > 30 | > 30
12 | CCOC(=O)C1=C(C)NC(C)=C(C(=O)OCC)C1c1ccccc1/C=C/C(=O)OC(C)(C)C [LACIDIPINE] | > 30 | 15 | > 30 | 0.32 | > 30 | > 30 | > 30 | > 30 | > 30 | > 30 | > 30 | > 30
13 | CC1=C(C(=O)OC(C)C)C(c2cccc([N+](=O)[O-])c2)C(C(=O)OC2CN(C(c3ccccc3)c3ccccc3)C2)=C(N)N1 (configuration not stated) [AZELNIDIPINE] | > 30 | 2.2 | 12 | 0.092 | > 30 | > 30 | 16 | > 30 | 16 | 5.8 | > 30 | > 30
14 | CNCCc1ccc(OC(=O)C(C)C)c(OC(=O)C(C)C)c1 [IBOPAMINE] | > 30 | > 30 | > 30 | 18 | > 30 | > 30 | > 30 | > 30 | > 30 | > 30 | > 30 | > 30
15 | CN[C@]1(c2ccccc2Cl)CCCCC1=O [ESKETAMINE] | > 30 | > 30 | > 30 | > 30 | > 30 | 0.79 | > 30 | > 30 | > 30 | > 30 | > 30 | > 30
16 | CN(C)Cc1nnc2n1-c1ccc(Cl)cc1C(c1ccccc1)=NC2 [ADINAZOLAM] | > 10 | > 10 | > 10 | > 10 | > 10 | > 10 | > 10 | > 30 | > 10 | > 10 | > 30 | > 10
